Data taken from publication PMC3960879 (Biology, 2013).

Experiments:
[1] = biological target: T1, F17aG receptor-binding domain (Escherichia coli, UniProt Q99003); assay: biochemical; conditions: SPR steady state, 25 °C, pH 7.4; read-out: Affinity range (Kd class), F17aG
T1 construct: variants of the lectin domains with oligolysine (4Lys) tails have been constructed; made in house; host or cells: E. coli (periplasm)
Protocol: The affinity profiles were determined by surface plasmon resonance (SPR) measurements using a BiaCore 3000 instrument (GE Healthcare). […] The proteins were covalently immobilized on CM5 sensor chips (Biacore AB) to an average density of 2000 RU (resonance units in pg/mm^2). On each chip, one flow cell was coated with a camel single domain antibody for use as a reference cell. The other three flow cells (Fc2, Fc3 and Fc4) were coated with three different F17G variants. Carbohydrate concentrations ranging from 10 µM to 10 mM in running buffer (20 mM Hepes, pH 7.4; 150 mM NaCl; 3 mM EDTA and 0.005% surfactant Tween 20) were incubated for one minute on all flow cells simultaneously, at 25 °C and at a flow rate of 30 µL/min. Complete dissociation of the carbohydrates in running buffer was verified before starting a new binding cycle. All binding cycles were performed in duplicate, including a zero concentration cycle (injection of pure running buffer). All analysis was done using the BIAeval software. In each case the equilibrium resonance signal from the reference cell was subtracted from that of the various F17G flow cells (2-1, 3-1, 4-1). A Langmuir binding isotherm with a 1:1 stoichiometry was fitted to the data, from which the equilibrium dissociation constants, Kd, were obtained.

[2] = biological target: F17aG lectin domain (Escherichia coli, UniProt Q99003); conditions: CFG glycan array version 2; F17G at 200 µg/mL; SEM in parentheses
Protocol: (§1) A microarray presenting 264 different glycans (mammalian printed array version 2) was used to evaluate if the F17G variant lectin domains differ in the range of glycan receptors that they recognize, thereby establishing tropism. The microarray was set up within the Consortium for Functional Glycomics (CFG) ([20], and supplemental data). Binding of F17G (200 µg/mL) was detected using anti-F17G polyclonal rabbit IgG (10 µg/mL), followed by fluorescently labelled goat anti-rabbit polyclonal antibodies (IgG-488, 5 µg/mL).
(§2) A microarray presenting 264 different glycans (mammalian printed array version 2 from the CFG, experiment 400) was used to evaluate whether the F17G variant lectin domains differ in the range of glycan receptors that they can recognize, thereby establishing strain-dependent tropism. […] The glycan array screening has been repeated for F17aG only on printed array version 4.1 (experiment 2053) (Figure 1).
(§3) Printed array version 2 at the Consortium for Functional Glycomics was used for glycan array screening of the variant F17G receptor binding domains. Slides were printed, with six replicates for each glycan, using glycan spotting concentrations of 100 μM, at the Consortium Carbohydrate Synthesis/Protein Expression Core D located at the Scripps Research Institute onto Schott Nexterion H slides (Schott Cat. No. 1070936B). Slide conditioning: preprinted slides were soaked in deionized water for 5 minutes at room temperature and dried under a stream of nitrogen. TSM buffer (20 mM Tris-HCl, pH 7.4, or MOPS 20 mM; 150 mM NaCl; 2 mM CaCl2, 2 mM MgCl2) was used as wash buffer (TSM buffer + 0.05% Tween 20) or binding buffer (TSM buffer + 0.05% Tween 20 + 1% BSA). (1) F17G was diluted to 200 μg/mL (Figure 1) in TSM binding buffer. (2) 50 μL of F17G was applied to the printed surface and coverslipped. (3) The slide was incubated, protected from light, in a humidified chamber for 1 hour at RT. (4) The slide was washed once in TSM wash buffer. 50 μL of the anti-F17G (10 μg/mL) polyclonal rabbit IgG were applied, coverslipped and incubated for 1 h at RT. (5) The slide was washed once in TSM wash buffer. Fifty μL of fluorescently labelled secondary goat anti-rabbit polyclonal antibodies (IgG-488, 5 µg/mL) were applied, coverslipped and incubated for 1 h at RT. (6) Slide was removed, followed by the coverslip, and washed for 10 s each in TSM wash buffer, TSM wash buffer lacking Tween 20, and deionized water. The slide was dried under a stream of nitrogen. (7) The binding image was read in a Perkin Elmer Microscanarray XL4000 scanner and tiff file of image stored. (8) Image analysis was performed using Imagene (V.6) image analysis software. (9) Raw data results files were generated in Excel format and uploaded to the Consortium database as .dat files. (10) Imagene data was uploaded to the database as .txt files.

[3] = biological target: F17bG lectin domain (Escherichia coli, UniProt Q47200); conditions: CFG glycan array version 2; F17G at 200 µg/mL; SEM in parentheses
Protocol: as §1, §2, §3

[4] = biological target: F17dG lectin domain (Escherichia coli, UniProt Q47199); conditions: CFG glycan array version 2; F17G at 200 µg/mL; SEM in parentheses
Protocol: as §1, §2, §3

[5] = tested on: F17eG lectin domain; assay: CFG mammalian printed glycan array version 2 (experiment 400), F17eG; assay type: binding, Escherichia coli; conditions: CFG glycan array version 2; F17G at 200 µg/mL; SEM in parentheses
Description: (§4) The slide was dried under a stream of nitrogen.

[6] = tested on: F17fG lectin domain; assay: CFG mammalian printed glycan array version 2 (experiment 400), F17fG; assay type: binding, Escherichia coli; conditions: CFG glycan array version 2; F17G at 200 µg/mL; SEM in parentheses
Description: as §4

F17bG lectin domain, sequence (Q47200 23-199): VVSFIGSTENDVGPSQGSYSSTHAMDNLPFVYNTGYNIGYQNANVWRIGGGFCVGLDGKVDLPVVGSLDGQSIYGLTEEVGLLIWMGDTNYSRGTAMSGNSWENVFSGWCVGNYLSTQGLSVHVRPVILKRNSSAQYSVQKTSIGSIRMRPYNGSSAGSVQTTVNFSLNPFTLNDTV
F17aG lectin domain, sequence (Q99003 23-199): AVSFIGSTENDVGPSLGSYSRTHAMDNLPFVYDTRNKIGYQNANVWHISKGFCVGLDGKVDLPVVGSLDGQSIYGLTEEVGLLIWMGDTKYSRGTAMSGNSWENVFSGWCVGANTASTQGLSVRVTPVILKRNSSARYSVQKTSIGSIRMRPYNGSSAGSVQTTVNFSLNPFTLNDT
T1 sequence (Q99003 23-199): as above
F17dG lectin domain, sequence (Q47199 23-199): as the sequence (Q99003 23-199) above, with L16P, D33N, R35G, K37N, H47R, K90N counted along it

Row | SMILES | Kd [1] | Relative Fluorescence Units (RFU), averaged over six replicates, F17aG [2] | Relative Fluorescence Units (RFU), averaged over six replicates, F17bG [3] | Relative Fluorescence Units (RFU), averaged over six replicates, F17dG [4] | Relative Fluorescence Units (RFU), averaged over six replicates, F17eG [5] | Relative Fluorescence Units (RFU), averaged over six replicates, F17fG [6]
1 | CC(=O)N[C@H]1[C@H](O[C@H]2[C@@H](O)[C@@H](CO)O[C@@H](O[C@H]3[C@H](O)[C@@H](O)C(O)O[C@@H]3CO)[C@@H]2O)O[C@H](CO)[C@@H](O)[C@@H]1O[C@@H]1O[C@H](CO)[C@H](O)[C@H](O)[C@H]1O[C@@H]1O[C@@H](C)[C@@H](O)[C@@H](O)[C@@H]1O (some centres unmarked) [Fucα1,2Galβ1,3GlcNAcβ1,3Galβ1,4Glc] | > 100 mM |  |  |  |  | 
2 | COc1ccc(O[C@@H]2O[C@H](CO)[C@@H](O[C@@H]3O[C@H](CO)[C@H](O)[C@H](O)[C@H]3NC(C)=O)[C@H](O)[C@H]2NC(C)=O)cc1 [GalNAcβ1,4GlcNAcβ1-methoxy phenyl] | 1 to 10 mM |  |  |  |  | 
3 | CC(=O)N[C@H]1[C@H](OC[C@H]2O[C@H](OCCCN)[C@H](NC(C)=O)[C@@H](O[C@@H]3O[C@H](CO)[C@H](O)[C@H](O)[C@H]3O)[C@H]2O)O[C@H](CO)[C@@H](O)[C@@H]1O [Galβ1,3(GlcNAcβ1,6)GalNAcα-Sp8] |  | 10,256 (1,410) RFU | 6,215 (1,046) RFU | 3,850 (364) RFU | 50,893 (5,540) RFU | 3,195 (811) RFU
4 | CC(=O)N[C@H]1C(O)O[C@H](CO)[C@H](O)[C@@H]1O[C@@H]1O[C@H](CO)[C@H](O)[C@H](O)[C@H]1O (some centres unmarked) [Galβ1,3GalNAc] | 10 to 100 mM |  |  |  |  | 
5 | CC(=O)N[C@H]1[C@H](O[C@H]2[C@@H](O)[C@@H](CO)O[C@@H](O[C@H]3[C@H](O)[C@@H](O)C(O)O[C@@H]3CO)[C@@H]2O)O[C@H](CO)[C@@H](O[C@@H]2O[C@H](CO)[C@H](O)[C@H](O)[C@H]2O)[C@@H]1O (stereo partly drawn) [Galβ1,4GlcNAcβ 1,3Gal β1,4Glc] | 10 to 100 mM |  |  |  |  | 
6 | CC(=O)N[C@H]1[C@H](OCCCN)O[C@H](CO)[C@@H](O[C@@H]2O[C@H](CO[C@@H]3O[C@H](CO)[C@@H](O)[C@H](O)[C@H]3NC(C)=O)[C@H](O)[C@H](O[C@@H]3O[C@H](CO)[C@@H](O)[C@H](O)[C@H]3NC(C)=O)[C@H]2O)[C@@H]1O [GlcNAcβ1,3(GlcNAcβ1,6)Galβ1,4GlcNAcβ-Sp8] |  | 44,391 (3,949) RFU | 21,630 (2,490) RFU | 17,195 (3,442) RFU | 41,907 (4,694) RFU | 37,083 (5,973) RFU
7 | CC(=O)N[C@H]1[C@H](O[C@H]2[C@@H](O)[C@@H](CO)O[C@H](OCCCN)[C@@H]2NC(C)=O)O[C@H](CO)[C@@H](O)[C@@H]1O [GlcNAcβ1,3GalNAcα-Sp8] |  | 25,971 (3,174) RFU | 15,182 (2,925) RFU | 6,635 (2,735) RFU | 33,330 (7,321) RFU | 10,999 (2,929) RFU
8 | CC(=O)N[C@H]1[C@H](O[C@H]2[C@@H](O)[C@@H](CO)O[C@@H](OCCCN)[C@@H]2O)O[C@H](CO)[C@@H](O)[C@@H]1O [GlcNAcβ1,3Galβ-Sp8] |  | 32,288 (4,175) RFU | 16,310 (1,907) RFU | 16,277 (9,959) RFU | 38,836 (5,631) RFU | 27,648 (1,137) RFU
9 | CC(=O)N[C@H]1[C@H](OCCCN)O[C@H](CO)[C@@H](O[C@@H]2O[C@H](CO)[C@@H](O[C@@H]3O[C@H](CO)[C@@H](O)[C@H](O)[C@H]3NC(C)=O)[C@H](O)[C@H]2NC(C)=O)[C@@H]1O [GlcNAcβ1,4GlcNAcβ1,4GlcNAcβ-Sp8] |  | 848 (88) RFU | 2,860 (706) RFU | 1,690 (251) RFU | 5,689 (1,085) RFU | 2,418 (613) RFU
